ChEMBL document CHEMBL1201861, “Genomics of Drug Sensitity in Cancer screening data, Wellcome Trust Sanger Institute”

Assays:
Experiment in all cases: cells
SW780 = assay type: functional, cell-based, Homo sapiens; details: Homo sapiens, SW780;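 also: growth inhibition of the cells, read out with a cell viability assay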
Description: SANGER: Inhibition of human SW780 cell growth in a cell viability assay.

639-V = assay type: functional, cell-based, Homo sapiens; details: Homo sapiens, 639-V;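 also: growth inhibition of 639-V cells, read out with a cell viability assay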
Description: SANGER: Inhibition of human 639-V cell growth in a cell viability assay.

HTC-C3 = assay type: functional, cell-based, Homo sapiens; details: Homo sapiens, HTC-C3;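 also: inhibition of cell growth, read out with a cell viability assay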
Description: SANGER: Inhibition of human HTC-C3 cell growth in a cell viability assay.

NCI-H446 = assay type: functional, cell-based; details: Homo sapiens;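 also: growth inhibition of NCI-H446 cells determined by a cell viability assay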
Description: SANGER: Inhibition of human NCI-H446 cell growth in a cell viability assay.

EFO-21 = assay type: functional, cell-based, Homo sapiens; details: Homo sapiens, EFO-21;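 also: growth inhibition of EFO-21 cells measured with a viability assay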
Description: SANGER: Inhibition of human EFO-21 cell growth in a cell viability assay.

COLO-684 = assay type: functional, cell-based; details: Homo sapiens
Description: SANGER: Inhibition of human COLO-684 cell growth in a cell viability assay.

T47D = assay type: functional, cell-based, Homo sapiens; details: Homo sapiens, T47D;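 also: growth inhibition of human T47D cells, measured with a cell viability assay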
Description: SANGER: Inhibition of human T47D cell growth in a cell viability assay.

PA-1 = assay type: functional, cell-based, Homo sapiens; details: Homo sapiens, PA-1;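 also: IC50 for suppression of PA-1 cell proliferation, determined with a cell viability read-out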
Description: SANGER: Inhibition of human PA-1 cell growth in a cell viability assay.

J82 = assay type: functional, cell-based; details: Homo sapiens;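 also: growth inhibition of J82 cells, read out with a cell viability assay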
Description: SANGER: Inhibition of human J82 cell growth in a cell viability assay.

MDA-MB-175-VII = assay type: functional, cell-based, Homo sapiens; details: Homo sapiens, MDA-MB-175-VII
ME-180 = assay type: functional, cell-based; details: Homo sapiens;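 also: cell viability assay measuring growth inhibition of ME-180 cells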
Description: SANGER: Inhibition of human ME-180 cell growth in a cell viability assay.

HCC1569 = assay type: functional, cell-based, Homo sapiens; details: Homo sapiens, HCC1569;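 also: growth inhibition of human HCC1569 cells, read out with a cell viability assay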
Description: SANGER: Inhibition of human HCC1569 cell growth in a cell viability assay.

RPMI-8226 = assay type: functional, cell-based; details: Homo sapiens
Description: SANGER: Inhibition of human RPMI-8226 cell growth in a cell viability assay.

G-402 = assay type: functional, cell-based, Homo sapiens; details: Homo sapiens, G-402
Description: SANGER: Inhibition of human G-402 cell growth in a cell viability assay.

BPH-1 = assay type: functional, cell-based, Homo sapiens; details: Homo sapiens, BPH-1;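 also: cell viability assay measuring growth inhibition of human BPH-1 cells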
Description: SANGER: Inhibition of human BPH-1 cell growth in a cell viability assay.

CP66-MEL = assay type: functional, cell-based, Homo sapiens; details: Homo sapiens, CP66-MEL;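 also: growth inhibition of CP66-MEL cells determined in a cell viability assay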
Description: SANGER: Inhibition of human CP66-MEL cell growth in a cell viability assay.

JAR = assay type: functional, cell-based, Homo sapiens; details: Homo sapiens, JAR;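 also: growth inhibition of human JAR cells determined with a cell viability assay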
Ramos-2G6-4C10 = assay type: functional, cell-based; details: Homo sapiens;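 also: growth inhibition of the cell line, measured by a cell viability read-out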
Description: SANGER: Inhibition of human Ramos-2G6-4C10 cell growth in a cell viability assay.

NCI-H510A = assay type: functional, cell-based; details: Homo sapiens;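 also: growth inhibition of NCI-H510A cells, read out with a cell viability assay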
SF-268 = assay type: functional, cell-based, Homo sapiens; details: Homo sapiens, SF-268;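 also: growth inhibition of SF-268 cells determined with a cell viability assay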
Description: SANGER: Inhibition of human SF268 cell growth in a cell viability assay.

MEG-01 = assay type: functional, cell-based; details: Homo sapiens;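 also: growth inhibition of MEG-01 cells, read out by a cell viability assay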
Description: SANGER: Inhibition of human MEG-01 cell growth in a cell viability assay.

SW1990 = assay type: functional, cell-based, Homo sapiens; details: Homo sapiens, SW1990;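 also: cell growth inhibition determined with a viability assay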
Description: SANGER: Inhibition of human SW1990 cell growth in a cell viability assay.

VA-ES-BJ = assay type: functional, cell-based, Homo sapiens; details: Homo sapiens, VA-ES-BJ;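 also: growth inhibition of the VA-ES-BJ cell line, read out by a cell viability assay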
Description: SANGER: Inhibition of human VA-ES-BJ cell growth in a cell viability assay.

HD-MY-Z = assay type: functional, cell-based, Homo sapiens; details: Homo sapiens, HD-MY-Z;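 also: growth inhibition of HD-MY-Z cells, read out with a cell viability assay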
Description: SANGER: Inhibition of human HD-MY-Z cell growth in a cell viability assay.

NCI-H441 = assay type: functional, cell-based; details: Homo sapiens;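 also: growth inhibition of NCI-H441 cells, read out with a cell viability assay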
Description: SANGER: Inhibition of human NCI-H441 cell growth in a cell viability assay.

HCC2218 = assay type: functional, cell-based; details: Homo sapiens;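 also: cell viability assay read-out, with IC50 given as the concentration that inhibits growth of the cell line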
Description: SANGER: Inhibition of human HCC2218 cell growth in a cell viability assay.

COLO-741 = assay type: functional, cell-based, Homo sapiens; details: Homo sapiens, COLO-741
Description: SANGER: Inhibition of human COLO-741 cell growth in a cell viability assay.

KYSE-150 cell line = assay type: functional, cell-based, Homo sapiens; details: Homo sapiens, KYSE-150;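 also: growth inhibition of human KYSE-150 cells, read out with a cell viability assay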
Description: SANGER: Inhibition of human KYSE-150 cell growth in a cell viability assay.

MOLT-4 = assay type: functional, cell-based; details: Homo sapiens;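 also: growth inhibition of MOLT-4 cells, determined with a cell viability readout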
Description: SANGER: Inhibition of human MOLT-4 cell growth in a cell viability assay.

U-118-MG = assay type: functional, cell-based, Homo sapiens; details: Homo sapiens, U-118-MG
Description: SANGER: Inhibition of human U-118-MG cell growth in a cell viability assay.

NCI-H1437 = assay type: functional, cell-based, Homo sapiens; details: Homo sapiens, NCI-H1437;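 also: growth inhibition of human NCI-H1437 cells, read out by a cell viability assay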
Description: SANGER: Inhibition of human NCI-H1437 cell growth in a cell viability assay.

RMG-I = assay type: functional, cell-based, Homo sapiens; details: Homo sapiens, RMG-I;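 also: growth inhibition of human RMG-I cells, read out with a cell viability assay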
Description: SANGER: Inhibition of human RMG-I cell growth in a cell viability assay.

A-375 = assay type: functional, cell-based, Homo sapiens; details: Homo sapiens, A-375;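 also: growth inhibition of A375 cells, read out with a cell viability assay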
Description: SANGER: Inhibition of human A375 cell growth in a cell viability assay.

SNU-5 = assay type: functional, cell-based; details: Homo sapiens;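 also: cell viability readout used to measure growth inhibition in human NCI-SNU-5 cells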
Description: SANGER: Inhibition of human NCI-SNU-5 cell growth in a cell viability assay.

SNU1 = assay type: functional, cell-based; details: Homo sapiens;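 also: growth inhibition of human NCI-SNU-1 cells, measured with a cell viability assay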
Description: SANGER: Inhibition of human NCI-SNU-1 cell growth in a cell viability assay.

MIA PaCa-2 = assay type: functional, cell-based, Homo sapiens; details: Homo sapiens, MIA PaCa-2;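 also: growth inhibition of MIA PaCa-2 cells, read out with a cell viability assay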
Description: SANGER: Inhibition of human MIA-PaCa-2 cell growth in a cell viability assay.

CW-2 = assay type: functional, cell-based, Homo sapiens; details: Homo sapiens, CW-2;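 also: growth inhibition of CW-2 cells, read out by a cell viability assay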
Description: SANGER: Inhibition of human CW-2 cell growth in a cell viability assay.

LXF-289 cell line = assay type: functional, cell-based, Homo sapiens; details: Homo sapiens, LXF-289
Description: SANGER: Inhibition of human LXF-289 cell growth in a cell viability assay.

NOS-1 = assay type: functional, cell-based, Homo sapiens; details: Homo sapiens, NOS-1;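 also: growth inhibition of the human NOS-1 cell line, read out with a cell viability assay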
Description: SANGER: Inhibition of human NOS-1 cell growth in a cell viability assay.

ACHN = assay type: functional, cell-based, Homo sapiens; details: Homo sapiens, ACHN;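 also: cell viability read-out used to gauge how strongly growth of human ACHN cells is suppressed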
Description: SANGER: Inhibition of human ACHN cell growth in a cell viability assay.

MFH-ino = assay type: functional, cell-based; details: Homo sapiens;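 also: growth inhibition of human MFH-ino cells, read out by a cell viability assay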
Description: SANGER: Inhibition of human MFH-ino cell growth in a cell viability assay.

T98G = assay type: functional, cell-based, Homo sapiens; details: Homo sapiens, T98G;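 also: growth inhibition of T98G cells, read out by a cell viability assay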
Description: SANGER: Inhibition of human T98G cell growth in a cell viability assay.

CAKI-1 = assay type: functional, cell-based, Homo sapiens; details: Homo sapiens, CAKI-1;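 also: growth inhibition of CAKI-1 cells, measured by a cell viability assay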
Description: SANGER: Inhibition of human CAKI-1 cell growth in a cell viability assay.

SW48 = assay type: functional, cell-based, Homo sapiens; details: Homo sapiens, SW48;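 also: growth inhibition of SW48 cells, read out with a cell viability assay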
Description: SANGER: Inhibition of human SW48 cell growth in a cell viability assay.

IGR-1 = assay type: functional, cell-based, Homo sapiens; details: Homo sapiens, IGR-1;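 also: growth inhibition of human IGR-1 cells, read out with a cell viability assay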
Description: SANGER: Inhibition of human IGR-1 cell growth in a cell viability assay.

LU-139 = assay type: functional, cell-based; details: Homo sapiens
Description: SANGER: Inhibition of human LU-139 cell growth in a cell viability assay.

RCM-1 = assay type: functional, cell-based, Homo sapiens; details: Homo sapiens, RCM-1;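 also: growth inhibition of the RCM-1 line, determined with a cell viability readout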
Description: SANGER: Inhibition of human RCM-1 cell growth in a cell viability assay.

BFTC-909 = assay type: functional, cell-based, Homo sapiens; details: Homo sapiens, BFTC-909
Description: SANGER: Inhibition of human BFTC-909 cell growth in a cell viability assay.

HOP-92 = assay type: functional, cell-based, Homo sapiens; details: Homo sapiens, HOP-92;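 also: cell viability readout, with IC50 reflecting inhibition of HOP-92 cell growth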
Description: SANGER: Inhibition of human HOP-92 cell growth in a cell viability assay.

ES4 = assay type: functional, cell-based, Homo sapiens; details: Homo sapiens, ES4;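 also: growth inhibition of human ES4 cells, read out by a cell viability assay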
Description: SANGER: Inhibition of human ES4 cell growth in a cell viability assay.

NCI-H520 = assay type: functional, cell-based, Homo sapiens; details: Homo sapiens, NCI-H520;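 also: growth inhibition of NCI-H520 cells, measured by a cell viability assay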
Description: SANGER: Inhibition of human NCI-H520 cell growth in a cell viability assay.

HCC 2998 = assay type: functional, cell-based, Homo sapiens; details: Homo sapiens, HCC 2998;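 also: growth inhibition of human HCC2998 cells, measured with a cell viability read-out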
Description: SANGER: Inhibition of human HCC2998 cell growth in a cell viability assay.

Cc1ccc(Nc2nccc(N(C)c3ccc4c(C)n(C)nc4c3)n2)cc1S(N)(=O)=O [PAZOPANIB]
IC50 (SW780): > 8 µM | IC50 (639-V): > 8 µM | IC50 (HTC-C3): > 8 µM | IC50 (NCI-H446): > 8 µM | IC50 (EFO-21): > 8 µM | IC50 (COLO-684): > 8 µM | IC50 (T47D): > 8 µM | IC50 (PA-1): > 8 µM | IC50 (J82): 2.06 µM | IC50 (MDA-MB-175-VII): > 8 µM | IC50 (ME-180): > 8 µM | IC50 (HCC1569): > 8 µM | IC50 (RPMI-8226): > 8 µM | IC50 (G-402): 0.532 µM | IC50 (BPH-1): > 8 µM | IC50 (CP66-MEL): > 8 µM | IC50 (JAR): > 8 µM | IC50 (Ramos-2G6-4C10): > 8 µM | IC50 (NCI-H510A): > 8 µM | IC50 (SF-268): > 8 µM | IC50 (MEG-01): > 8 µM | IC50 (SW1990): > 8 µM | IC50 (VA-ES-BJ): > 8 µM | IC50 (HD-MY-Z): > 8 µM | IC50 (NCI-H441): > 8 µM | IC50 (HCC2218): > 8 µM | IC50 (COLO-741): > 8 µM | IC50 (KYSE-150 cell line): > 8 µM | IC50 (MOLT-4): > 8 µM | IC50 (U-118-MG): > 8 µM | IC50 (NCI-H1437): > 8 µM | IC50 (RMG-I): > 8 µM | IC50 (A-375): > 8 µM | IC50 (SNU-5): > 8 µM | IC50 (SNU1): > 8 µM | IC50 (MIA PaCa-2): 5.6 µM | IC50 (CW-2): > 8 µM | IC50 (LXF-289 cell line): > 8 µM | IC50 (NOS-1): 0.66 µM | IC50 (ACHN): > 8 µM | IC50 (MFH-ino): > 8 µM | IC50 (T98G): > 8 µM | IC50 (CAKI-1): > 8 µM | IC50 (SW48): > 8 µM | IC50 (IGR-1): > 8 µM | IC50 (LU-139): > 8 µM | IC50 (RCM-1): > 8 µM | IC50 (BFTC-909): > 8 µM | IC50 (HOP-92): > 8 µM | IC50 (ES4): > 8 µM | IC50 (NCI-H520): 5.73 µM | IC50 (HCC 2998): > 8 µM

CN(c1ncccc1CNc1nc(Nc2ccc3c(c2)CC(=O)N3)ncc1C(F)(F)F)S(C)(=O)=O [PF-00562271]
IC50 (SW780): > 2.56 µM | IC50 (639-V): > 2.56 µM | IC50 (HTC-C3): > 2.56 µM | IC50 (NCI-H446): > 2.56 µM | IC50 (EFO-21): > 2.56 µM | IC50 (COLO-684): > 2.56 µM | IC50 (T47D): > 2.56 µM | IC50 (PA-1): > 2.56 µM | IC50 (J82): > 2.56 µM | IC50 (MDA-MB-175-VII): > 2.56 µM | IC50 (ME-180): > 2.56 µM | IC50 (HCC1569): > 2.56 µM | IC50 (RPMI-8226): > 2.56 µM | IC50 (G-402): > 2.56 µM | IC50 (BPH-1): 1.29 µM | IC50 (CP66-MEL): > 2.56 µM | IC50 (JAR): > 2.56 µM | IC50 (Ramos-2G6-4C10): > 2.56 µM | IC50 (NCI-H510A): > 2.56 µM | IC50 (SF-268): > 2.56 µM | IC50 (MEG-01): > 2.56 µM | IC50 (SW1990): > 2.56 µM | IC50 (VA-ES-BJ): 1.9 µM | IC50 (HD-MY-Z): > 2.56 µM | IC50 (NCI-H441): > 2.56 µM | IC50 (HCC2218): > 2.56 µM | IC50 (COLO-741): > 2.56 µM | IC50 (KYSE-150 cell line): 1.35 µM | IC50 (MOLT-4): > 2.56 µM | IC50 (U-118-MG): > 2.56 µM | IC50 (NCI-H1437): > 2.56 µM | IC50 (RMG-I): > 2.56 µM | IC50 (A-375): > 2.56 µM | IC50 (SNU-5): > 2.56 µM | IC50 (SNU1): > 2.56 µM | IC50 (MIA PaCa-2): > 2.56 µM | IC50 (CW-2): > 2.56 µM | IC50 (LXF-289 cell line): > 2.56 µM | IC50 (NOS-1): > 2.56 µM | IC50 (ACHN): > 2.56 µM | IC50 (MFH-ino): > 2.56 µM | IC50 (T98G): > 2.56 µM | IC50 (CAKI-1): > 2.56 µM | IC50 (SW48): > 2.56 µM | IC50 (IGR-1): > 2.56 µM | IC50 (LU-139): > 2.56 µM | IC50 (RCM-1): > 2.56 µM | IC50 (BFTC-909): > 2.56 µM | IC50 (HOP-92): 2.31 µM | IC50 (ES4): > 2.56 µM | IC50 (NCI-H520): > 2.56 µM | IC50 (HCC 2998): > 2.56 µM

Cn1cncc1[C@@](N)(c1ccc(Cl)cc1)c1ccc2c(c1)c(-c1cccc(Cl)c1)cc(=O)n2C [TIPIFARNIB]
IC50 (SW780): > 16 µM | IC50 (639-V): 1.19 µM | IC50 (HTC-C3): 4.83 µM | IC50 (NCI-H446): > 16 µM | IC50 (EFO-21): 4.26 µM | IC50 (COLO-684): 5.71 µM | IC50 (T47D): > 16 µM | IC50 (PA-1): 1.34 µM | IC50 (J82): 4.18 µM | IC50 (MDA-MB-175-VII): > 16 µM | IC50 (ME-180): 14.5 µM | IC50 (HCC1569): 2.58 µM | IC50 (RPMI-8226): 9.03 µM | IC50 (G-402): 2.11 µM | IC50 (BPH-1): 2.24 µM | IC50 (CP66-MEL): 9.82 µM | IC50 (JAR): > 16 µM | IC50 (Ramos-2G6-4C10): > 16 µM | IC50 (NCI-H510A): > 16 µM | IC50 (SF-268): 8.07 µM | IC50 (MEG-01): 3.61 µM | IC50 (SW1990): 12.4 µM | IC50 (VA-ES-BJ): 2.36 µM | IC50 (HD-MY-Z): > 16 µM | IC50 (NCI-H441): 13.6 µM | IC50 (HCC2218): > 16 µM | IC50 (COLO-741): 6.55 µM | IC50 (KYSE-150 cell line): 6.2 µM | IC50 (MOLT-4): 4.91 µM | IC50 (U-118-MG): > 16 µM | IC50 (NCI-H1437): 8.21 µM | IC50 (RMG-I): > 16 µM | IC50 (A-375): 0.616 µM | IC50 (SNU-5): > 16 µM | IC50 (SNU1): > 16 µM | IC50 (MIA PaCa-2): 0.32 µM | IC50 (CW-2): > 16 µM | IC50 (LXF-289 cell line): 4.13 µM | IC50 (NOS-1): 2.13 µM | IC50 (ACHN): 1.12 µM | IC50 (MFH-ino): 0.815 µM | IC50 (T98G): 11.8 µM | IC50 (CAKI-1): > 16 µM | IC50 (SW48): 8.61 µM | IC50 (IGR-1): 1.62 µM | IC50 (LU-139): > 16 µM | IC50 (RCM-1): > 16 µM | IC50 (BFTC-909): 8.37 µM | IC50 (HOP-92): 9.13 µM | IC50 (ES4): 1.28 µM | IC50 (NCI-H520): 2.22 µM | IC50 (HCC 2998): 0.384 µM
